Reference: US20170246223A1 (priority 2016, published 2017)

Columns and labels:
[1] = tested on: E. coli; assay: in vitro cytotoxicity screen of drugs co-incubated with E. coli (tumour cell survival, MTS); format: cell-based, E. coli Nissle 1917; settings: drug co-incubated with E. coli, bacteria removed, filtrate applied to tumour cells; change relative to reference cytotoxic effect (drug without bacteria)
Description: (§1) 1. Bacteria and Drug are mixed in DMEM medium, and co-incubated for 3 h at 37° C. 2. The drug is separated from bacteria using centrifugation and filtration. 3. The filter sterilised DMEM containing the transformed drug is applied to tumour cells in a 96 well plate. 4. Tumour cell viability is evaluated via the MTS assay for end point measurements.
Bioluminescent E. coli was described by us previously and cultured in the presence of […] erythromycin. Listeria welshimeri Serovar 6B SLCC5334 was purchased from ECACC and cultivated at 37° C. in Brain Heart Infusion (BHI) medium. B. breve UCC2003 and Lactococcus lactis (UCC Culture Collection) was routinely grown at 37° C. in reinforced clostridial medium and M17 medium respectively (Oxoid, Basingstoke, UK). All lactobacilli strains were a kind gift of Dr. Cormac Gahan, UCC School of microbiology, and were grown in lactobacillus MRS broth (Beckton Dickinson). The E. coli nitroreductase deletion mutants and parent strains were kindly provided by Dr. Antonio Valle and grown in LB broth/agar with appropriate antibiotics. The strain Δ+A was created by transforming AB502 (streptomycin, kanamycin sensitive derivative of parent strain AB1157) with the plasmid pNZ44 (chloramphenicol resistance) carrying the gene nfsA. The strain Δ+B was created by transforming AB502 with the plasmid pTrc99A (ampicillin resistance) containing the gene nfsB (see below).
Microtitre plates (96-well) were pre-seeded with 4000 cells/well in appropriate medium for each cell line and allowed to attach overnight. The next day, bacteria were cultured to log-phase or stationery phase (Gram-positive) resuspended in PBS and added to 2 mls of DMEM to an OD600mn of 0.1-0.2 for E. coli 0.05 for Lactococcus lactis, and 0.3-0.4 for the rest of the Grand-positives. Each strain was exposed for 2-3 h to drug in a tissue culture incubator. Bacteria were separated from the drug by centrifugation and filter sterilisation using 0.2 μm pore filters (Starsted) after which 200 μl of filtrate was transferred to each well. […] Cytotoxicity was quantified using an MTS staining with the Cell Titre 96 AQueous One solution Cell Proliferation Assay (Promega). The plates were measured and analysed in a Spectra max M2 (Molecular devices) spectrophotometer at 490 nm.

[2] = tested on: CT26 tumours; assay: Subcutaneous flank CT26 tumours in Balb/c mice, bacteria i.t. plus drug i.p., survival; format: in vivo
Description: Subcutaneous flank CT26 tumours growing in Balb/c mice were injected i.t with bacteria or PBS vehicle alone. Gemcitabine (60 mg/kg) was injected i.p. five times at three day intervals. FIG. 3A) Tumour volume (%) relative to the first day of gemcitabine injection (day 0) is shown. *P<0.03, **P=0.002 for gemcitabine alone versus gemcitabine+bacteria. […] Data are expressed as mean±SEM of 4 to 8 individual mice per group.
Subcutaneous flank CT26 tumours growing in Balb/c mice were injected i.t with bacteria or PBS vehicle alone. CB1954 (20 mg/kg) was injected i.p. for the duration of the experiment at 3 day intervals. FIG. 4A) Tumour volume (%) relative to the first day of CB1954 injection (day 0) is shown. […] P=0.0374). Data are expressed as mean±SEM of 3-5 individual mice per group.
FIGS. 12A-12D: Tumour therapy via in vivo activation of prodrugs. BALB/c mice bearing subcutaneous CT26 flank tumours colonised by E. coli Nissle 1917 received IP injections of CB1954+PBS, 5-FC+PBS, CB1954+5-FC or PBS three times per week. Tumours were monitored for changes in volume and luminescence (where applicable) from live bacteria on each treatment day. FIG. 12A) The change in bacterial luminescence (relative to day 0) from tumour colonising luminescent E. coli is shown. […] FIG. 12B) Changes in CT26 tumour volume were monitored until the first death in the group determined by a predefined endpoint. FIG. 12C-12D) Survival plot of each group starting from the first day of bacteria/drug administration.
Animals and tumour induction: 6-8 week old female BALB/c mice weighing approximately 18-20 g were kept as previously described. For tumour induction, a 200 μl suspension of 2×10^5 CT26 cells in serum free Dulbecco's Modified Eagle's Medium (DMEM) culture medium were injected subcutaneously into the flank of BALB/c mice. The viability of inoculated cells was determined using the Nucleocounter system (ChemoMetec). Tumour growth was monitored three times per week by caliper measurement and mice were randomly assigned to groups when the tumours reached approximately 100 mm^3 in volume. Mice were culled once tumours reached 1.5×1.5 cm in size (predetermined endpoint).
Bacterial administration to mice: Bacteria were grown overnight in LB medium and in a shaking incubator at 37° C. These bacteria were used to inoculate fresh growth medium and allowed to grow until reaching OD600 0.6. […]
Statistical analysis For biological in vitro and in vivo assays, two-sided, paired student's t test with 95% confidence or Mann Whitney U test were employed to investigate statistical differences, using GraphPad Prism@5.0 or Microsoft Excel 12. […] Statistical significance of survival between groups in murine experiments was determined using the Log-rank (Mantel-Cox) Test. […]

[3] = tested on: L. welshimeri; assay: in vitro cytotoxicity screen of drugs co-incubated with L. welshimeri (tumour cell survival, MTS); format: cell-based, Listeria welshimeri Serovar 6B SLCC5334; settings: drug co-incubated with L. welshimeri, bacteria removed, filtrate applied to tumour cells; change relative to reference cytotoxic effect (drug without bacteria)
Description: as §1
Bioluminescent E. coli was described by us previously and cultured in the presence of […] erythromycin. Listeria welshimeri Serovar 6B SLCC5334 was purchased from ECACC and cultivated at 37° C. in Brain Heart Infusion (BHI) medium. B. breve UCC2003 and Lactococcus lactis (UCC Culture Collection) was routinely grown at 37° C. in reinforced clostridial medium and M17 medium respectively (Oxoid, Basingstoke, UK). All lactobacilli strains were a kind gift of Dr. Cormac Gahan, UCC School of microbiology, and were grown in lactobacillus MRS broth (Beckton Dickinson). […]
Microtitre plates (96-well) were pre-seeded with 4000 cells/well in appropriate medium for each cell line and allowed to attach overnight. […] Cytotoxicity was quantified using an MTS staining with the Cell Titre 96 AQueous One solution Cell Proliferation Assay (Promega). The plates were measured and analysed in a Spectra max M2 (Molecular devices) spectrophotometer at 490 nm.

Nc1nc(=O)[nH]cc1F [5-fluorocytosine]
Cytotoxicity E. coli [1]: Up

OC[C@H]1O[C@@H](n2cnc3c(S)ncnc32)C[C@@H]1O [6-Mercaptopurine-2′-deoxyriboside]
Cytotoxicity E. coli [1]: Up

C[N+](C)([O-])CCNc1ccc(NCC[N+](C)(C)[O-])c2c1C(=O)c1c(O)ccc(O)c1C2=O [AQ4N]
Cytotoxicity E. coli [1]: Up

CC1(C)CCC2=C(O1)c1ccccc1C(=O)C2=O [B-Lapachone]
Cytotoxicity E. coli [1]: Down

NC(=O)c1cc(N2CC2)c([N+](=O)[O-])cc1[N+](=O)[O-] [CB1954]
Cytotoxicity E. coli [1]: Up | median survival post Day 0 ([2]; CB1954+bacteria group, E. coli i.t., CB1954 20 mg/kg i.p. at 3 day intervals, P=0.0374 vs CB1954 alone): 26 days | median survival post Day 0 ([2]; CB1954 alone group (PBS i.t.), 20 mg/kg i.p. at 3 day intervals): 8 days

Nc1nc(Cl)nc2c1ncn2[C@H]1C[C@H](O)[C@@H](CO)O1 [Cladribine]
Cytotoxicity E. coli [1]: reduced cytotoxic effect and Down

COc1cccc2c1C(=O)c1c(O)c3c(c(O)c1C2=O)C[C@@](O)(C(C)=O)C[C@@H]3O[C@H]1C[C@H](N)[C@H](O)[C@H](C)O1 [Daunorubicin]
Cytotoxicity E. coli [1]: Down

COc1cccc2c1C(=O)c1c(O)c3c(c(O)c1C2=O)C[C@@](O)(C(=O)CO)C[C@@H]3O[C@H]1C[C@H](N)[C@H](O)[C@H](C)O1 [Doxorubicin]
Cytotoxicity E. coli [1]: Down

COc1cc([C@@H]2c3cc4c(cc3[C@@H](O[C@@H]3O[C@@H]5CO[C@@H](C)O[C@H]5[C@H](O)[C@H]3O)[C@H]3COC(=O)[C@H]23)OCO4)cc(OC)c1OP(=O)(O)O [Etoposide phosphate]
Cytotoxicity E. coli [1]: Down

Nc1nc(F)nc2c1ncn2[C@@H]1O[C@H](COP(=O)(O)O)[C@@H](O)[C@@H]1O [Fludarabine de phosphate]
Cytotoxicity E. coli [1]: Up | Cytotoxicity L. welshimeri [3]: Up

Nc1ccn([C@@H]2O[C@H](CO)[C@@H](O)C2(F)F)c(=O)n1 [Gemcitabine]
Cytotoxicity E. coli [1]: Down | median survival post Day 0 ([2]; gemcitabine alone group (PBS i.t.), 60 mg/kg i.p. five times at three day intervals): 28 days | median survival post Day 0 ([2]; gemcitabine+bacteria group, E. coli i.t., gemcitabine 60 mg/kg i.p. five times at three day intervals, P=0.008 vs gemcitabine alone): 17 days

CC(=O)[C@]1(O)Cc2c(O)c3c(c(O)c2[C@@H](O[C@H]2C[C@H](N)[C@H](O)[C@H](C)O2)C1)C(=O)c1ccccc1C3=O [Idarubicin]
Cytotoxicity E. coli [1]: Down

CC1=CC(=O)c2ccccc2C1=O [Menadione]
Cytotoxicity E. coli [1]: Down

O=C1c2c(O)ccc(O)c2C(=O)c2c(NCCNCCO)ccc(NCCNCCO)c21 [Mitoxantrone]
Cytotoxicity E. coli [1]: Down

O=c1[nH]c(=O)n(C2CCCO2)cc1F (stereo not drawn) [Tegafur]
Cytotoxicity E. coli [1]: Up

Nc1ncnc2c1ncn2[C@@H]1O[C@H](CO)[C@@H](O)[C@@H]1O [Vidarabine]
Cytotoxicity E. coli [1]: Down
